Data on six substances can be found in patent US7588752B2, “Antimicrobial peptides” (The University of Melbourne, priority 1997, dated 2009).

No end group written: not given here.

The subject of assay [1] is Streptococcus mutans Ingbritt. It counts as cell-based. Conditions: RP-HPLC of endo Glu-C digest of TCA-soluble UF whey.
Description: Peaks were collected and assayed for antimicrobial activity. Antimicrobial assays were carried out in liquid growth medium using sterile 96 well plates, each well having a capacity of 300 μL. The growth medium consisted of Todd Hewit broth (36.4 g/L), Yeast Extract (5.0 g/L) with 100 mmol/L potassium phosphate buffer. Routinely the pH of the growth medium was adjusted to 6.3. An inoculum of approximately 1.5×10^2 cells (Streptococcus sanguis, Streptococcus mutans, Porphyromonas gingivalis) that had been harvested during the exponential phase of growth, was added to each well. The ionophore gramicidin (40 μmol/L final concentration) was added to a series of wells as a negative control. Positive controls contained only the inoculum and the growth medium. Growth was determined over a 30 hour period after inoculation by measuring the optical density of the cell suspensions at a wavelength of 650 nm (OD650), using a microplate reader (Biorad, model 450). Growth was determined by subtracting the initial reading, taken immediately after inoculation from the final reading (maximum culture OD). […]
The test system of assay [2] is Streptococcus sanguinis (formerly S. sanguis). Briefly: Antibacterial growth assay in liquid medium, 96 well plates, OD 650 nm. The format is cell-based. The note with it: peaks of tryptic hydrolysate of sodium caseinate. The protocol: Hydrolysis was terminated by the addition of 1M HCl to pH 4.6. The hydrolysate was centrifuged (11,600 g for 10 min) and then filtered through a 0.2 μm PVDF filter before being applied to a 7 μm C8 (Brownlee) reversed-phase column (4.6×220 mm). The sample was eluted using an Applied Biosystems 140 A Solvent Delivery System to generate a stepwise linear gradient from 0-20% B in 2 min followed by 20-45% B in 40 min at a flow rate of 1 ml/min. Eluant A was 0.1% (v/v) TFA in water and eluant B was 80% (v/v) acetronitrile, 0.1% (v/v) TFA in water. The eluant was monitored using an Applied Biosystems 1000S Diode Array detector at a primary wavelength of 215 nm. Peaks were collected and assayed for antimicrobial activity. […] Growth was determined over a 30 hour period after inoculation by measuring the optical density of the cell suspensions at a wavelength of 650 nm (OD650), using a microplate reader (Biorad, model 450). Growth was determined by subtracting the initial reading, taken immediately after inoculation from the final reading (maximum culture OD). […]
The antibacterial assay was conducted in sterile 96 well plates (Becton Dickinson, Melbourne, Australia). […] Growth of the bacterium was determined as the difference between the final and initial Optical Density (OD) 650 nm readings using a microplate reader (BIORAD, model 450, NSW, Australia). […]

In the next assay the test system is Klebsiella pneumoniae. Conditions: concentrations as low as 0.1 μM; injected intravenously before lethal infectious challenge; cited from earlier work.
The test system of a further assay is Staphylococuus carnosus. Conditions: cited from earlier work.
For a further assay, the system named is Escherichia coli. Conditions: cited from earlier work.

As to “AVESTVATLEDSPEVIESPPE [Ser(P)^149 κ-casein A (138-158)]”, the “antimicrobial activity against S. mutans” value in assay [1] is on record as “exhibited antimicrobial activity”.

As to “DMPIQAFLLYQQPVLGPVR (bovine) [β-casein (184-202)]”, the “antimicrobial activity against Streptococcus sanguinis” value in assay [2] is given as “showed activity”.

In the case of “PGPIPN (bovine) [β-casein (63-68), casein peptide of Migliore-Samour et al. (1989)]”, the “protective effect in mice against Klebsiella pneumoniae infection” value with Klebsiella pneumoniae is reported as “significant protective effect”.

In the case of “Ser(P)^149 κ-casein (117-169): tryptic casein peptide, genetic variant not specified ((SEQ ID NO:12) and (SEQ ID NO:14))”, the “antimicrobial activity against Streptococcus sanguinis” value in assay [2] is on record as “showed activity”.

As for “TTMPLW (bovine) [αs1-casein (194-199), casein peptide of Migliore-Samour et al. (1989)]”, the “protective effect in mice against Klebsiella pneumoniae infection” value in the assay on Klebsiella pneumoniae is listed as “significant protective effect”.

For the substance “αs2-casein (fl72-203): antibacterial peptide from bovine αs2-casein released by treating milk with glacial acetic acid (Zucht et al., 1995) (QKFALPQYLKTVYQHQKAMKPWIQPKTKVIPY; UniProt P02663 187-218, looked up, fragment)”, the “inhibition of growth of Staphylococuus carnosus” value with Staphylococuus carnosus is “inhibit the growth”. The “inhibition of growth of Escherichia coli” value with Escherichia coli was “inhibit the growth”.
